Non-standard residues stand in square brackets, D forms with d. No end group written: not given here. *: point of attachment. Nle = CCCC[C@H](N)C(=O)O; For = O=C*
What was measured:
SKOV-3 cells [1] = assay: Adhesion kinetic of SKOV-3 cells onto Vn monitored in real time (xCELLigence); type: cell-based, Human; settings: SKOV-3 pre-exposed to 100 nM peptide, 2 h, cell index, quadruplicate representative of 3 replicates
Protocol: This assay was performed using E-16-well plates and the xCELLigence Real Time Cell Analysis technology. Bottom wells were coated with serum-free medium, 5 μg mL Vn, 5 μg mL Fn, 5 μg mL Lm or 15 μg mL Coll diluted in serum-free medium prior to seeding cells (1 × 10^4 cells/well) suspended in serum-free medium. Cells that adhere to the bottom of plates cause impedance changes which are proportional to the number of cells. The impedance value of each well was automatically monitored in real-time for at least 2 h and expressed as a cell index value. The experiments were performed three times in quadruplicate.

FPR1 [2] = assay: Ligand binding assay with FITC-RI-3 on primary EOC cells; parameters: species or system human; settings: for prevention of FITC-RI-3 binding by unlabeled peptide: primary EOC cells, 100 nM peptide pre-incubated 60 min at 4 °C, then 10 nM FITC-RI-3 60 min at 4 °C, three experiments
Protocol: EOC cells were pre-incubated with diluents or the indicated unlabeled peptides for 60 min at 4 °C (to avoid internalization), extensively rinsed with phosphate buffer saline (PBS), exposed to 10 nM FITC-RI-3 diluted in PBS, for additional 60 min at 4 °C and again rinsed with PBS. Quantification of cell associated fluorescence was assessed by reading cells with the fluorescence plate reader Victor 3. The experiments were performed three times in duplicate.

FPR1 [3] = assay: Agonist-dependent FPR1 internalization in EOC cells (confocal microscopy); type: cell-based, human; settings: primary EOC cells, 10 nM fluorescent peptide, 30 min at 37 °C
Protocol: Cells (2 × 10^4/sample) were seeded on glass coverslips and cultured for 24 h in growth medium. Then, slides were washed with PBS, fixed with 2.5% formaldehyde in PBS for 10 min at 4 °C and incubated for 1 h at 4 °C with 2 μg/mL R4 anti-uPAR mAb or 1:100 rabbit anti-FPR1 Ab (#113531Ab, Abcam). Then, 1:700 goat Alexa Fluor 488 anti-rabbit IgG, or rabbit Alexa Fluor 488-conjugated F(ab’)2 fragment of anti-mouse IgG (Molecular Probes) were applied to slides at 23 °C for 40 min. Nuclear staining was performed with 4-6-diamidino-2-phenylindole dye (DAPI). To analyze agonist-dependent FPR1 internalization, cells grown on glass slides were exposed to 10 nM FITC-fMLF or 10 nM FITC-RI-3 diluted in serum-free DMEM for 30 min at 37 °C as described. After extensive washing with PBS, coverslips were mounted using 20% (w/v) mowiol, visualized with the 510 META-LSM confocal microscope (Carl Zeiss).

cell migration = settings: FITC-RI-3, compared with non-fluorescent peptide; ref [38]; cited from earlier work
Text: In order to obtain primary cultures of EOC cells, representative fragments of tissue samples were fragmented and cells recovered, as described in the Methods. By enzymatic digestion of a HGSC tissue sample (patient #5), a primary cell culture expressing high levels of both uPAR and FPR1 on cell surface as shown by IHC, was obtained (Figs. 4 and 5a). Subsequent sub-cloning of isolated cell clusters (Fig. 5b) followed by five passages allowed us to obtain an adherent, homogeneous, CD326 positive cell population. These EOC cells express a considerable amount of both uPAR and FPR1 as shown by West ...

SKOV-3 cells [4] = assay: Adhesion of SKOV-3 cells onto extracellular matrix proteins (24-well plates, cell counting); type: cell-based, Human; settings: SKOV-3 pre-incubated with 100 nM peptide 30 min at 37 °C, 2 h; for cell adhesion onto Coll, Fn or Lm after desensitization: collagen, fibronectin, laminin; for cell adhesion onto Vn after desensitization: vitronectin, means ± SD of three independent experiments
Protocol: Adhesion assays were performed using 24 multi-well plates coated with 1% BSA, 5 μg mL vitronectin (Vn), 5 μg mL fibronectin (Fn), 5 μg mL laminin (Lm) or 15 μg mL collagen (Coll) diluted in serum-free medium. Sub-confluent cells were harvested by a mild trypsinization, incubated with 10% FBS / DMEM for 1 h at 37 °C, 5% CO2, acid treated with a buffer containing 50 mM glycin-HC1, 0.1 M NaCl, pH 3 for 4 min at 22 °C, to remove receptor-bound ligands, and counted. Viable cells (2 × 10^5 cells per well) were plated in serum-free medium, in the absence or presence of 2 μg/mL R3 mAb recognizing the DI uPAR domain, 2 μg/mL399 anti-uPAR (American Diagnostica), 2 μg/mL anti-uPAR84-95 (PRIMM), 2 μg/mL anti-α-tubulin (Cell Signaling) Abs or 10 nM RI-3, and allowed to adhere for 2 h at 37 °C, 5% CO2. […] At the end of the assay, adherent cells were removed with 0.05% trypsin, and counted. The number of adherent cells was expressed as a percentage of the basal cell adhesion (CTRL). The experiments were performed at least three times in triplicate.

FPR1 [5] = settings: 100 nM peptide, 30 min at 37 °C; ref [37], [38]; cited from earlier work
EOC cells = assay: EOC cell adhesion to and crossing of mesothelial cell monolayers (summary statement); type: cell-based, human; settings: EOC cells exposed to RI-3 or desensitized with an excess of SRSRY
Protocol: HPMCs (1 × 10^5 cells/well) suspended in growth medium, were seeded in 24-well plates and allowed to adhere for about 20 h until they form a confluent monolayer, prior to seeding GFP-tagged EOC cells suspended in growth medium plus diluents or 10 nM RI-3. At the indicated times, plates were accurately washed with PBS and cell-associated fluorescence was assessed by a fluorescence plate reader a fluorescence plate reader (Victor 3, Perkin Elmer), using 485 nm excitation and 535 nm emission filters. The experiments were performed three times in triplicate.
HPMCs (5 × 10^3 cells/well) suspended in growth medium, were seeded in E-16-well plates and allow to adhere for 18–20 h until they form a confluent monolayer, prior to seeding EOC cells (2 × 10^4 cells/well) in growth medium plus/minus 10 nM RI-3. When HPMCs are challenged with invading cells, there is a drop in electrical resistance within 2–4 h which is monitored in real-time as the Cell Index changes due to the rupture of mesothelium. The experiments were performed three times in quadruplicate.

[6] = tested on: cell migration and ECM attachment; settings: independently of the uPA catalytic activity; ref [14], [24]–[26]; cited from earlier work
Text: Ovarian cancer cells detach from the primary tumor and float in the ascitic fluid as single cells or multicellular, chemo-resistant spheroids. Then, floating cancer cells must resist anoikis triggered by lack of attachment to the mesothelium to evade clearance through the peritoneal lymphatics.

vitronectin receptor = tested on: vitronectin receptor; parameters: method as in PMID 15866865, PMID 20880257; settings: inside-out mechanism involving PKC, AKT and MAPK; ref [26], [28]; cited from earlier work

| Substance | adhesion onto Vn in real time after desensitization (SKOV-3 cells [1]) | FPR1 internalization (FPR1 [3]) | cell adhesion onto Coll, Fn or Lm after desensitization (SKOV-3 cells [4]) | cell adhesion onto Vn after desensitization (SKOV-3 cells [4]) | prevention of FITC-RI-3 binding by unlabeled peptide (FPR1 [2]) | availability of FPR1 on cell surface after desensitization (FPR1 [5]) | regulation of cell migration and ECM attachment [6] | FPR1 interaction activating the vitronectin receptor (vitronectin receptor) | other results |
| --- | --- | --- | --- | --- | --- | --- | --- | --- | --- |
| ARARY [control peptide ARARY] | ineffective | – | – | – | – | – | – | – | – |
| Ac-(D)-Tyr-(D)-Arg-Aib-(D)-Arg-Ahx-Lys (N^ɛ-FITC)-NH2 [FITC-RI-3, fluorescein-conjugate of RI-3] | – | little or no internalization | – | – | – | – | – | – | binding of FITC-RI-3 to EOC cell surface (FPR1 [2]; primary EOC cells (patient #5), 10 nM FITC-RI-3 in PBS, 60 min at 4 °C, fluorescence): specific, saturable RI-3 uptake on EOC cell surface; FPR1 binding and inhibition of cell migration (cell migration): binding FPR1 and inhibiting cell migration like the non-fluorescent peptide |
| For-[Nle]LF[Nle]YK [FITC-fMLF, fluorescein conjugate hexapeptide Formyl-Nle-Leu-Phe-Nle-Tyr-Lys, reference compound] | – | caused FPR1 internalization | – | – | – | – | – | – | – |
| N-Formyl-L-methionyl-L-leucyl-L-phenylalanine [fMLF] | abrogates cell capability to adhere onto Vn | – | not onto Coll, Fn or Lm | lose the ability to adhere onto Vn | prevented | unavailability of FPR1 on cell surface | – | – | – |
| Ser-Arg-Ser-Arg-Tyr [SRSRY, synthetic shorter pentapeptide uPAR88–92] | abrogates cell capability to adhere onto Vn | – | not onto Coll, Fn or Lm | lose the ability to adhere onto Vn | prevented | unavailability of FPR1 on cell surface | potent regulators of cell migration and ECM attachment | internalizes and activates the vitronectin receptor | ability to cross mesothelial cell monolayers (abstract) (EOC cells): losing the ability to cross them |
| uPAR84–95: The domain boundary between DI-DII (uPAR84–95 sequence) (AVTYSRSRYLEC; UniProt Q03405 106-117, looked up, fragment) | – | – | – | – | – | – | potent regulators of cell migration and ECM attachment | internalizes and activates the vitronectin receptor | – |

From article PMC6839174, “Targeting the Formyl Peptide Receptor type 1 to prevent the adhesion of ovarian cancer cells onto mesothelium and subsequent invasion” (Journal of Experimental & Clinical Cancer Research : CR, 2019)
